# Assay results as given in PubChem BioAssay AID1259418 (Broad Institute, 2018).
# Values joined by “and” are separate entries in the source; they are usually repeats but may differ in a detail not shown here. Equal values may be shown once. Records with an inconclusive call do not appear. Active and inactive are the calls of the source.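 The calls were made as follows: active = fitted half-maximal concentration of signal decrease at or below twice the sample's top tested concentration; inconclusive = flat curve between -70 and -30 percent, or poor fit; inactive = flat within 30 percent, signal rise, or potency above limit.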
# Molecular target: T. gondii ME49Luc in IFN-y HeLa, luciferase, 72 h
# Assay: T. gondii growth inhibition with IFN-gamma, dose response, cell-based, ME49Luc, HeLa, luciferase, 72 h (AID 1259418)
row,Compound,AC50
1,C[C@H](CO)N1C[C@H](C)[C@H](CN(C)C(=O)c2cc(Cl)cc(Cl)c2)OCc2ccccc2-c2c(n(C)c3ccccc23)C1=O,9.22 µM
2,CN1C(=O)c2cc(NC(=O)Cc3cccs3)ccc2OC[C@H]2O[C@@H](CC(=O)NCc3ccc(-c4ccccc4)cc3)CC[C@@H]21,12.8 µM
3,O=C1NCC(=O)N2CCN(C(=O)Nc3cc(Cl)cc(Cl)c3)CC12 (stereo unspecified),20.3 µM
4,COc1ccc(-c2nc(NCCCN3CCOCC3)c3ccccc3n2)cc1,16.6 µM
5,Cc1ccc(C(=O)Nc2c(C(=O)NCc3cccnc3)[nH]c3ccccc23)cc1,> 39 µM (inactive)
6,Cc1cccc(CNC2=NCCNC23CCN(S(=O)(=O)c2cc(C)cc(C)c2)CC3)c1,25.7 µM
7,CCN(C[C@@H]1N[C@@H](CO)[C@H]1c1ccc(-c2ccc(F)cc2)cc1)C(=O)CN(C)C,21.3 µM
8,O=C(CCCCCn1c(=S)[nH]c2ccccc2c1=O)N1CCC(O)(c2cccc(C(F)(F)F)c2)CC1,26.9 µM
9,O=C(CCCCCNc1nc(=S)[nH]c2ccccc12)N1CCC(O)(c2cccc(C(F)(F)F)c2)CC1,> 39 µM (inactive)
10,FC(F)(F)C1CN(c2cc(-c3ccccc3)nc3ccccc23)CCO1 (stereo unspecified),25.1 µM
11,O=C(Cc1cccnc1)N1CC(=O)N2[C@H](CO)[C@H](c3ccc(C#CC4CCCCC4)cc3)[C@@H]2C1,17.9 µM
12,Cc1ccccc1CN1C[C@@H]2c3nc(N4CCCC(C)C4)ncc3CS(=O)(=O)[C@H]2C1 (stereo partly specified),24.5 µM and 4.74 µM
13,CCCCN(C)C(=O)c1cnc(-c2noc3cc(NCC4CC4)ccc23)s1,6.44 µM and 21.7 µM
14,CN1C(=O)c2cc(NC(=O)Cc3cccs3)ccc2OC[C@@H]2O[C@H](CC(=O)NCC3CCCCC3)CC[C@@H]21,> 39 µM (inactive)
15,COc1cccc(NC(=O)N2CC(=O)N3[C@H](CO)[C@H](c4ccc(C#CCC5CCCC5)cc4)[C@@H]3C2)c1,17.6 µM
16,COc1ccc(N(Cc2nc(-c3ccccc3OC)oc2C)S(=O)(=O)c2ccc(OC)cc2)cc1,17.9 µM
17,Fc1ccccc1CSc1nc(NCc2ccc(Cl)cc2)c2ccccc2n1,17.4 µM
18,O=C(CCC1N=C2c3ccccc3N=C(SCc3ccc(F)cc3)N2C1=O)NC1CCCCC1 (stereo unspecified),16.2 µM

row,Compound,AC50
1,O=S(=O)(c1cccs1)N1CCCCN2[C@H](CO)[C@H](c3ccc(/C=C/c4ccccc4)cc3)[C@@H]2C1,18.8 µM
2,CCOc1ccc(N(Cc2nc(-c3ccc(OC)cc3)oc2C)S(=O)(=O)c2cccs2)cc1,4.79 µM
3,CN(C)C1CCN(Cc2cccc(C#N)c2)C(C(=O)O)C1 (stereo unspecified),9.32 µM
4,CN(C)CCCNC(=O)c1cc(-c2cnc(-c3ccccc3)nc2)cn1C,30.1 µM
5,Cc1nc(CCNC(=O)[C@H]2CCCN2C(=O)c2cccc(F)c2)cs1,29.2 µM
6,Cc1cc(C)cc(S(=O)(=O)N2CCC3(CC2)NCCN=C3NCc2ccc(C(F)(F)F)cc2)c1,6.65 µM
7,COc1ccc(OCC(=O)N2CCC3(CC2)Nc2cc(OC)ccc2-n2cccc23)cc1,38.3 µM
8,Cc1ccc(S(=O)(=O)N2CCC3(CC2)NCCN=C3NCc2cc(F)cc(F)c2)cc1C,30.1 µM
9,Cc1ccc(-c2coc(-c3ccc(NS(=O)(=O)c4ccc(Br)cc4)cc3)n2)c(C)c1,27.9 µM
10,CCc1c(C)sc2c1CCN(Cc1nc(-c3cc(C)ccc3C)oc1C)C2c1ccccc1 (stereo unspecified),9.45 µM
11,O=C(Cc1ccncc1)N1C[C@@H]2N[C@H](C1)C2c1ccc(/C=C/c2ccccc2)cc1 (stereo partly specified),20.9 µM
12,CCOc1ccccc1N(Cc1nc(-c2ccccc2OC)oc1C)S(=O)(=O)c1cccs1,12.2 µM
13,O=C(Cc1cccnc1)N1CC(=O)N2[C@H](CO)[C@@H](c3ccc(C#CC4CCCCC4)cc3)[C@H]2C1,16.4 µM
14,O=C(Cc1cccnc1)N1CC(=O)N2[C@H](CO)[C@@H](c3ccc(/C=C/c4ccccc4)cc3)[C@@H]2C1,19.3 µM
15,Cc1cccc(-c2nc(Cn3nnc(-c4nc(-c5ccncc5)no4)c3C)c(C)o2)c1,8.63 µM
16,O=C(NCCc1csc(-c2ccccc2)n1)C1CCN(S(=O)(=O)c2ccc(Cl)cc2)CC1,14.6 µM
17,CCCNC(=O)c1cc(-c2ccn(CC3CC3)n2)n2ccccc12,26.9 µM
18,CCOc1ccc(-c2nc(CN(c3cccc(OC)c3)S(=O)(=O)c3ccccc3)c(C)o2)cc1,6.87 µM
